Experimental data as given in patent US6342517B1, “Potassium channel activators and their use” (Cambridge Bioclinical Limited, priority 1998, dated 2002).

What was measured:
NIH 3T3 fibroblasts = assay: Cell growth potentiation test (potentiation of mitogenic activity of fetal calf serum, EZ4U cellular proliferation assay); type: cell-based; settings: for Cell growth relative to FCS alone (%): 100% = same growth as base concentration of FCS alone; for Cell growth potentiation relative to minoxidil at 100 μM (%): 0% = base concentration of FCS alone (5% or 3%), 100% = minoxidil at 100 μM
Description: To test for activity in mammalian hair growth stimulation, an in vitro test of cell growth potentiation has been applied to a number of the compounds of the invention and prior art compounds 11901 and 11903. The test involves an assay of the call growth due to potentiation of the mitogenic activity of fetal calf serum (FCS). See WO97/14036. Details of materials, methods and results are as follows.
Tissue culture plastics were obtained from Beckton Dickinson (Cowley, Oxford, UK). NIH 3T3 fibroblasts were obtained from the European collection of animal cell cultures (Salisbury, Wilts, UK). Dulbecco's modified Eagle's medium (DMEM) was obtained from Flow Laboratories (Rickmansworth, Herts, UK). L-Glutamine and fetal calf serum were from Gibco (Paisley, UK).
The EZ4U cell proliferation assay kits were obtained from Cozart Bioscience Ltd (Abingdon, Oxon, UK). All other chemicals were obtained from Sigma Chemical Company Ltd. (Poole, Dorset, UK), and of the highest grade available.
NIH 3T3 fibroblasts were maintained in Dulbecco's modified Eagle's medium supplemented with 10% FCS and 2 mM L-glutamine in 150 cm^2 tissue culture flasks at 37° C. in an atmosphere of 5% CO2/95% air. Antibiotics were omitted. Medium was changed every 3 days, and passages were carried out twice a week before cells reached confluence. Prior to experiments, cells were passaged and plated out to give 10^4 cell/ml in 96-well multi-well plates. Cells were incubated for 24 hours with Dulbecco's modified Eagle's medium supplemented with 10% FCS to aid attachment. This was then removed and the experimental medium added.
Compounds were prepared following a general preparation protocol. This protocol consisted of taking a mass of compound, dissolving in the recommended solvent (40 μl) such that in the final preparation the concentrations of compound and solvent would be 100 μM and 0.1 respectively. In theory this volume was 40 μl, however for accuracy a mass larger than the required mass was dispensed and the solvent volume varied accordingly; only 40 μl of this solution was required for the next stage. The 40 μl volume was then added to a volume of FCS (1.2 ml), such that in the final preparation the concentration of FCS would be 3%. This solution was then added to DMEM containing L-glutamine (2 mM) (18.76 ml). The resulting solution of 20 ml volume was filter stabilised. This solution is now 200 μM in compound, 6% FCS and 0.2% solvent, and so was diluted 1:1 with the DMEM containing L-glutamine. This 100 μM stock could then be diluted serially to provide lower concentrations of the compound of interest. Solutions containing different ratios of compound and FCS were obtained in a similar manner.
This was performed, following the manufacturer's instructions, using an EZ4U assay kit, which is based upon the conversion of tetrazolium salt to coloured formazam derivatives by mitochondria (Hansen et al, 1989). Plates were read on a plate reader (Anthos Labtec HT2), using a measurement filter (450 nm), with a reference filter (620 nm) with a low Shaking density for 5 seconds prior to measurement. Control experiments were made against counting cells in a haemocytometer (sanders et al, 1996). There is some variance of results between different batches of FCS employed.
A series of cell growth potentiation/inhibition tests has been carried out in accordance with the procedure described above on some of the compounds of the invention, on compounds 11901 and 11903 and on minoxidil (a compound well known for its hair growth stimulation effects). Because of some variability of results with different batches of FCS, each compound was tested in a solution of a base concentration of FCS and was compared with minoxidil in a solution of the same base concentration of FCS and with a solution having the same base concentration of FCS alone (no additive), using the same FCS batch in order to provide standardised comparisons for that compound. […]

[1] = tested on: K+-stimulated isolated rat aorta; assay: K+-stimulated isolated rat aorta test; settings: relaxation of contraction triggered by 25 mM KCl in rat aorta rings; asterisk (*) = low activity, only approximate value
Protocol: K^+-stimulated Isolated Rat Aorta Test
Male rats weighing about 300 g are killed painlessly by a blow to the neck and quickly exsanguinated. The thoracic cavity is opened and the aorta is carefully resectioned. It is placed in a Petri dish filled with Krebs solution, and surrounding connective and fatty tissue is removed. Two rings are prepared. The rings are each suspended in an organ bath, They are attached at the bottom to a hook and at the top to an electrical force transducer which is able to measure precisely contractions of 0-10 grams in strength. The measured contractions are amplified by means of a bridge amplifier and recorded with a thermal plotter.
The organ baths are filled with Krebs solution at 37° C. through which an O2/CO2 mixture is bubbled thoroughly and which has the following composition (mmol/1): NaCl 118.4; KCl 4.7; CaCl2 2.5; KH2PO4 1.2; MgSO4 1.2; NaHCO3 25; glucose 11.
The rings are stretched with a basic tone of about 0.5 g, After an equilibration time of about 30 minutes, the rings are caused to undergo contraction by depolarization (addition of 25 mM KCl to the organ bath). The contractions of the rings of aorta, triggered by the depolarization, quickly reach a plateau, As soon as this plateau is reached (“100% value”), the test substance is added to the organ bath, initially at low concentrations, for example 10^−8M, and then in increasing doses at regular intervals, until the contractions reduce or the final concentration of 10^−4M is reached. Each test substance is tested 2-4 times in this way.
For purposes of evaluation, the height of the contractions registered on the plotter paper is measured for each experiment after the action of each test concentration added. The IC50 value can be calculated in this way in relation to the original height of contractions before the addition of substance (100%).

For `Nc1cc(N2CCCCC2)nc(N)[n+]1[O-]` [minoxidil, reference compound], the “concentration of greatest potentiation of mitogenic activity of FCS” value (NIH 3T3 fibroblasts; 5% FCS, FIG. 2, 100% growth = value for 10% FCS) was 100 µM.
`CC1(C)C[C@@]2(SCC[S@+]2[O-])c2sccc2O1` (relative stereo) [Compound 50064, rel-(1S, 2S)-6′,7′-Dihydro-5′,5′-dimethylspiro[1,3-dithiolane-2,7′-5H-thieno[3,2-b]pyran]-1-oxide] showed an IC50 [1] of ~10 µM.
`CC1(C)Oc2cc(S(=O)(=O)c3ccccc3)sc2[C@@H](N2CCCC2=O)[C@@H]1O` [Compound 50108, (?)-(6S, 7S)-6,7-Dihydro-6-hydroxy-5,5-dimethyl-7-(2-oxo-1-pyrrolidinyl)-2-(phenylsulphonyl)-5H-thieno[3,2-b]pyran] gave an IC50 [1] of 0.018 µM.
In the case of `CC1(C)C[C@]2(SCCC[S@+]2[O-])c2sccc2O1` (relative stereo) [Compound 50070, rel-(1S, 2R)-6′,7′-Dihydro-5′,5′-dimethylspiro[1,3-dithiane-2,7′-5H-thieno[3,2-b]pyran]-1-oxide], the “Cell growth relative to FCS alone (%)” value (NIH 3T3 fibroblasts; Compound at 10 μM) is reported as 81% and the “Cell growth relative to FCS alone (%)” value (NIH 3T3 fibroblasts; Compound at 100 μM) is reported as 78%.
“6′,7′-Dihydro-5′,5′-dimethylspiro[1,3-dithialane-2,7′-5H-thieno[3,2-b]pyran]-2′-carbonitrile [Compound 50066]” was tested, and the IC50 [1] was ~10 µM, the “Cell growth potentiation relative to minoxidil at 100 μM (%)” value (NIH 3T3 fibroblasts; Compound at 10 μM) was 355% and the “Cell growth potentiation relative to minoxidil at 100 μM (%)” value (NIH 3T3 fibroblasts; Compound at 100 μM) was 144%.
With `CC1(C)Oc2cc(C(F)(F)C(F)(F)F)sc2[C@@H](N2CCCCC2=O)[C@@H]1O` (relative stereo) [Compound 50174, rel-(6S, 78S)-2-(Pentafluoroethyl)-6,7-dihydro-6-hydroxy-5,5-dimethyl-7-(2-oxo-1-piperidinyl)-5H-thieno[3,2-b]pyran] the “Cell growth potentiation relative to minoxidil at 100 μM (%)” value (NIH 3T3 fibroblasts; Compound at 10 μM) was 244% and the “Cell growth potentiation relative to minoxidil at 100 μM (%)” value (NIH 3T3 fibroblasts; Compound at 100 μM) was 133%.
In the case of “5,5-Dimethyl-7-(2-oxo-1-pyrrolidinyl)-2-(thiazolin-2-yl)-5-thieno[3,2-b]pyran [Compound 50133]”, the “Cell growth potentiation relative to minoxidil at 100 μM (%)” value (NIH 3T3 fibroblasts; Compound at 10 μM) is reported as 54% and the “Cell growth relative to FCS alone (%)” value (NIH 3T3 fibroblasts; Compound at 100 μM) is reported as 60%.
Molecule `CC1=C(C)C[C@]2(CC(C)(C)Oc3cc(C#N)sc32)[S@+]([O-])C1` (relative stereo) [Compound 50096, rel-(1′R, 2′R)-3′,6,6′,7-Tetrahydro-4′,5,5′,5-tetramethyl-1′-oxospiro[5H-thieno[3,2-b]pyran-7,2′-2H-thiopyran-2-carbonitrile] has an IC50 [1] of 2.3 µM.
`CC1(C)C[C@@]2(SCC[S@+]2[O-])c2sc(C#N)cc2O1` (relative stereo) [Compound 50067, rel-(1S, 2S)-6′,7′-Dihydro-5′,5′-dimethylspiro[1,3-dithiolane-2,7′-5H-thieno[3,2-b]pyran]-2′-carbonitrile-1-oxide] was tested, and the IC50 [1] was ~100 µM, the “Cell growth relative to FCS alone (%)” value (NIH 3T3 fibroblasts; Compound at 10 μM) was 96% and the “Cell growth relative to FCS alone (%)” value (NIH 3T3 fibroblasts; Compound at 100 μM) was 69%.
With `CC1=C(C)CS(=O)(=O)C2(C1)CC(C)(C)Oc1ccsc12` (stereo not shown) [Compound 50110, 3′,6,6′,7-Tetrahydro-4′,5,5,5′-tetramethyl-spiro[5H-thieno[3,2-b]pyran-7,2′-2H-thiopyran]-1′,1′-dioxide] the IC50 [1] was 10 µM.
For `CC1=C(C)C(C2=CC(C)(C)Oc3cc(C#N)sc32)[S+]([O-])C1` (stereo not shown) [Compound 50106, 5,5-Dimethyl-(2,5-dihydro-3,4-dimethyl-1-oxy-thien-2-yl)-5H-thieno[3,2-b]pyran-2-carbonitrile], the “Cell growth relative to FCS alone (%)” value (NIH 3T3 fibroblasts; Compound at 10 μM) was 80% and the “Cell growth potentiation relative to minoxidil at 100 μM (%)” value (NIH 3T3 fibroblasts; Compound at 100 μM) was 60%.
`CC1(C)C[C@]2(SCC[S@+]2[O-])c2sc(C#N)cc2O1` (relative stereo) [Compound 50068, rel-(1S, 2R)-6′,7′-Dihydro-5′,5′-dimethylspiro[1,3-dithiolane-2,7′-5H-thieno[3,2-b]pyran]-2′-carbonitrile-1-oxide] gave an IC50 [1] of ~30 µM.
Work on `CC1(C)C[C@]2(SCC[S@+]2[O-])c2sccc2O1` (relative stereo) [Compound 50065, rel-(1S, 2R)-6′,7′-Dihydro-5′,5′-dimethylspiro[1,3-dithiolane-2,7′-5H-thieno[3,2-b]pyran]-1-oxide] yielded an IC50 [1] of ~30 µM.
Work on `CC1=C(C)C[C@]2(CC(C)(C)Oc3ccsc32)[S@+]([O-])C1` (relative stereo) [Compound 50054, rel-(1′R, 2′R)-3′,6,6′,7-Tetrahydro-4′,5,5′,5-tetramethylspiro[5H-thieno[3,2-b]pyran-7,2′-2H-thiopyran]-1′-oxide] yielded an IC50 [1] of ~3 µM.
In the case of `CC1=C(C)C[C@]2(CC(C)(C)Oc3cc(S(=O)(=O)c4ccccc4)sc32)[S@+]([O-])C1` (relative stereo) [Compound 50126, rel-(1′R,2′R)-3′,6,6′,7-Tetrahydro-4′,5,5′,5-tetramethyl-2-(phenylsulphonyl)spiro[5H-thieno[3,2-b]pyran-7,2′-2H-thiopyran]1′-oxide], the IC50 [1] is reported as 6.3 µM.
`CC1=C(C)C[C@@]2(CC(C)(C)Oc3ccsc32)[S@+]([O-])C1` (relative stereo) [Compound 50055, rel-(1′R, 2′S)-3′,6,6′,7-Tetrahydro-4′,5,5′,5-tetramethylspiro[5N-thieno[3,2-b]pyran-7,2′-2H-thiopyran]-1′-oxide] was tested, and the IC50 [1] was ~10 µM.
`CC1=C(C)C[C@@]2(CC(C)(C)Oc3cc(S(=O)(=O)c4ccccc4)sc32)[S@+]([O-])C1` (relative stereo) [Compound 50127, rel-(1′R,2′S)-3′,6,6′,7-Tetrahydro-4′,5,5′,5-tetramethyl-2-(phenylsulphonyl)spiro[5H-thieno[3,2-b]pyran-7,2′-2H-thiopyran]1′-oxide] showed an IC50 [1] of 7.4 µM.
`CC1(C)C=C(N2CCCC2=O)c2sc(C#N)cc2O1` [Compound 50040, 5,5-Dimethyl-7-(2-oxo-1-pyrrolidinyl)-5H-thieno[3,2-b]pyran-2-carbonitrile] was tested, and the “Cell growth potentiation relative to minoxidil at 100 μM (%)” value (NIH 3T3 fibroblasts; Compound at 10 μM) was 24% and the “Cell growth potentiation relative to minoxidil at 100 μM (%)” value (NIH 3T3 fibroblasts; Compound at 100 μM) was 48%.
In the case of `CC1(C)CC2(CC3(C)OC3(C)CS2(=O)=O)c2sccc2O1` (stereo not shown) [Compound 50111, 4′,5′-Epoxy-3′,6,6′,7-tetrahydro-4′,5,5,5′-tetramethyl-spiro[5H-thieno[3,2-b]pyran-7,2′-2H-thiopyran]-1′,1′-dioxide], the IC50 [1] is reported as 3 µM.
